Article PMC12073402, “A Selective MAP3K1 Inhibitor Facilitates Discovery of NPM1 as a Member of the Network” (Molecules, 2025)

Key:
Experiment in all cases: KiNativ kinome profiling in PANC-1 lysate
Assay type in all cases: binding
[1] = system: FGFR1, FMS, PDGFRb, TYRO3; conditions: 5 µM; Lys1; VAVKMLK
How it was run: (§1)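 PANC-1 lysates were incubated with 5 μM inhibitor or DMSO, then labeled with a desthiobiotin-ATP acyl-phosphate probe that biotinylates conserved kinase lysines. Tryptic peptides were streptavidin-enriched and quantified by LC-MS/MS, reported as % change in MS signal from duplicate treated and duplicate control samples.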

[2] = target: T1, PIP5K1A (Homo sapiens, UniProt Q99755); conditions: ATP
T1 construct: endogenous in cells; host or cells: PANC-1 cell lysate
How it was run: as §1

[3] = target: T2, GCN2 domain2 (Homo sapiens, UniProt Q9P2K8)
T2 construct: we opted to conduct a kinome screen (KiNativ) in PANC-1 cell lysates; endogenous in cells; host or cells: PANC-1 cell lysate
T2 sequence (Q9P2K8 whole entry, the tested form may be a part): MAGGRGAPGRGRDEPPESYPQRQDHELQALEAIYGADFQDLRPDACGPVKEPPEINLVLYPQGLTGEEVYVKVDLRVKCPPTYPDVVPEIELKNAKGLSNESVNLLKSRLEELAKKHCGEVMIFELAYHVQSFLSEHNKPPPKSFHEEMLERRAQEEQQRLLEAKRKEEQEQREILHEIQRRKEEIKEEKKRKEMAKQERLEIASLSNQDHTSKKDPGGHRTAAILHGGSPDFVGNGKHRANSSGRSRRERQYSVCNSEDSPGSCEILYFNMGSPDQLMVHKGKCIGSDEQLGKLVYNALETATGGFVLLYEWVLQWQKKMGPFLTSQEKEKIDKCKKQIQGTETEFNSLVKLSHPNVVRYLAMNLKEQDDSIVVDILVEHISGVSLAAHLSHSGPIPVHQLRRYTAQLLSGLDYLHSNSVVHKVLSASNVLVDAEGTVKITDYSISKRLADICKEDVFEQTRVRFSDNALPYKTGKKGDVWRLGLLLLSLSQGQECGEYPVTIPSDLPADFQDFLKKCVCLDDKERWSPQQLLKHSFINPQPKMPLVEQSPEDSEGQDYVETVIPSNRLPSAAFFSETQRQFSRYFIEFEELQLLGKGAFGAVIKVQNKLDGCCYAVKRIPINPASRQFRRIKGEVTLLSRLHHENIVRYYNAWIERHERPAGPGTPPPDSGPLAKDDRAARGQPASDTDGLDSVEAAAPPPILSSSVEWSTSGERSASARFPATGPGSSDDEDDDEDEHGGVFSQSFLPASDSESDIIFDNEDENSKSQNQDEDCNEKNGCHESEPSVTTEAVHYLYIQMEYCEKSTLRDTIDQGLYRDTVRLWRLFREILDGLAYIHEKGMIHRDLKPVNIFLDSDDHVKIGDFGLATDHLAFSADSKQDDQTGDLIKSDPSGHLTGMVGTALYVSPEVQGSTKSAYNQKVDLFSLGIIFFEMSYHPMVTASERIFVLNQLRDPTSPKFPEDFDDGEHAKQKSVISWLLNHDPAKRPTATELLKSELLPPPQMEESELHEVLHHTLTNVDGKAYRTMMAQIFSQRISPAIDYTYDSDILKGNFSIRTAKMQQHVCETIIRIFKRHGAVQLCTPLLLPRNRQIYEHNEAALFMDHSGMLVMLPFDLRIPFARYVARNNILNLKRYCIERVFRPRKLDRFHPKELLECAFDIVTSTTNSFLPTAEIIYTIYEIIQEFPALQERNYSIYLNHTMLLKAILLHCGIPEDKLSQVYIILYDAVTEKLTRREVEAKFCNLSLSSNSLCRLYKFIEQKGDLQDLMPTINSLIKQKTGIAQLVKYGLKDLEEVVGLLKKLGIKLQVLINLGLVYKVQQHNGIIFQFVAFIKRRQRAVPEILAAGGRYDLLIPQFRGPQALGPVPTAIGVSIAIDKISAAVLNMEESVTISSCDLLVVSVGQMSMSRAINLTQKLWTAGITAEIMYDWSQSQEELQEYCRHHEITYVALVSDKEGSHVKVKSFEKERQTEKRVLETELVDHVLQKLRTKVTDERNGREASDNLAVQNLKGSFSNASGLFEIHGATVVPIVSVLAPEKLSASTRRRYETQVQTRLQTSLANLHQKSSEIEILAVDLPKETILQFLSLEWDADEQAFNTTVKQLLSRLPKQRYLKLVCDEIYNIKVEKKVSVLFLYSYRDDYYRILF
How it was run: as §1

[4] = system: CK1g1, CK1g2, CK1g3; conditions: 5 µM; ATP Loop; KIGCGNFGELR
How it was run: as §1

[5] = target: T3, LATS1 (Homo sapiens, UniProt O95835)
T3 construct: we opted to conduct a kinome screen (KiNativ) in PANC-1 cell lysates; endogenous in cells; host or cells: PANC-1 cell lysate
How it was run: as §1

[6] = target: T4, HER2/ErbB2 (Homo sapiens, UniProt P04626)
T4 construct: we opted to conduct a kinome screen (KiNativ) in PANC-1 cell lysates; endogenous in cells; host or cells: PANC-1 cell lysate
How it was run: as §1

[7] = target: T5, RON (Homo sapiens, UniProt Q04912); conditions: Lys1
T5 construct: endogenous in cells; host or cells: PANC-1 cell lysate
How it was run: as §1

[8] = target: T6, MRCKb (Homo sapiens, UniProt Q9Y5S2); conditions: Lys2
T6 construct: endogenous in cells; host or cells: PANC-1
How it was run: as §1

[9] = target: T7, NDR1 (Homo sapiens, UniProt Q15208)
T7 construct: endogenous in cells; host or cells: PANC-1
How it was run: as §1

[10] = target: T8, ACK (Homo sapiens, UniProt Q07912)
T8 construct: endogenous in cells; host or cells: PANC-1 cell lysate
T8 sequence (Q07912 whole entry): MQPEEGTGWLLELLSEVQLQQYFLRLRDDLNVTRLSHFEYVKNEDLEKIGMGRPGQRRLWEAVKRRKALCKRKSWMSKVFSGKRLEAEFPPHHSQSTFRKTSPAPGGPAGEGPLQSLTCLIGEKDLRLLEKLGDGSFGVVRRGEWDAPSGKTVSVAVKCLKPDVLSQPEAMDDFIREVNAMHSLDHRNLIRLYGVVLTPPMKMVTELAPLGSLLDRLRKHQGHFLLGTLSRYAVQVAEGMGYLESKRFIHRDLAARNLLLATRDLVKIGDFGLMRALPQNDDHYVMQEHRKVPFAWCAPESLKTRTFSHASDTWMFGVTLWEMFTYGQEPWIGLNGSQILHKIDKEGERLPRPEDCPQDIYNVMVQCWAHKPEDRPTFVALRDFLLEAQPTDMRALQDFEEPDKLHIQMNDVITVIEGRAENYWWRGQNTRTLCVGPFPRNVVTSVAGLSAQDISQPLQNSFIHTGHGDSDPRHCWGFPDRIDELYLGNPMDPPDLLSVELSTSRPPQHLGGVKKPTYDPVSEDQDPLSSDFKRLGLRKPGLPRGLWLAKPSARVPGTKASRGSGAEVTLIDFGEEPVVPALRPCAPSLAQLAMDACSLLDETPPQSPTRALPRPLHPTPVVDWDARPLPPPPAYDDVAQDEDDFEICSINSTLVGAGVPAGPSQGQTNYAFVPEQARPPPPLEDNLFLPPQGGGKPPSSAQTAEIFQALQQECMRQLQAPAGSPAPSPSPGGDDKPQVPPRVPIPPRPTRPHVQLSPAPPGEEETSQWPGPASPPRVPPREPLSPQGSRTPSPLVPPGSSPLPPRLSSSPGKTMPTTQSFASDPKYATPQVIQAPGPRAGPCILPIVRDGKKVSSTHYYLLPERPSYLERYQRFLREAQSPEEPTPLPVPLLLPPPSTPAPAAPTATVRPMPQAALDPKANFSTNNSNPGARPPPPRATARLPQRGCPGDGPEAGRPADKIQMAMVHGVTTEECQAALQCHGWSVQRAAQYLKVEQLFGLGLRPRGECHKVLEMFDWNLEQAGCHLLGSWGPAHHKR
How it was run: as §1

[11] = target: T9, MARK3 (Homo sapiens, UniProt P27448); conditions: Lys1
T9 construct: endogenous in cells; host or cells: PANC-1 cell lysate
How it was run: as §1

[12] = target: T10, FRAP (Homo sapiens, UniProt P42345); conditions: ATP
T10 construct: endogenous in cells; host or cells: PANC-1 lysate
How it was run: as §1

[13] = target: T11, PLK1 (Homo sapiens, UniProt P53350)
T11 construct: endogenous in cells; host or cells: PANC-1 cell lysate
T11 sequence (P53350 whole entry): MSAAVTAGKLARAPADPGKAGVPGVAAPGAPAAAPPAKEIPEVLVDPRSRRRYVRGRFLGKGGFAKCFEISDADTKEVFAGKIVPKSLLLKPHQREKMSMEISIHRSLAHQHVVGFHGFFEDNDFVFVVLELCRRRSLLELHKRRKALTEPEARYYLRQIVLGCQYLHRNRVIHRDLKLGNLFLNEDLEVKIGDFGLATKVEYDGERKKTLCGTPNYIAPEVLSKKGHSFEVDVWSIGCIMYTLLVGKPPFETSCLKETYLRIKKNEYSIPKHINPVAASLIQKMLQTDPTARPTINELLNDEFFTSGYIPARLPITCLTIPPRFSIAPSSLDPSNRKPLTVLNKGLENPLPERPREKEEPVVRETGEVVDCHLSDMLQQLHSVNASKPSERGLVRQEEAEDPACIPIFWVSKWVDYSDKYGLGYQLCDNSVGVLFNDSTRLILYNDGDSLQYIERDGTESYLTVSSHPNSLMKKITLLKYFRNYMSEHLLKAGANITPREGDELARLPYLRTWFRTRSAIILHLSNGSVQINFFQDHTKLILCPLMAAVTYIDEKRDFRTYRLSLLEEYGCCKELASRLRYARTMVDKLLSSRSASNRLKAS
How it was run: as §1

[14] = target: T12, FAK (Homo sapiens, UniProt Q05397)
T12 construct: endogenous in cells; host or cells: PANC-1 lysate
T12 sequence (Q05397 whole entry): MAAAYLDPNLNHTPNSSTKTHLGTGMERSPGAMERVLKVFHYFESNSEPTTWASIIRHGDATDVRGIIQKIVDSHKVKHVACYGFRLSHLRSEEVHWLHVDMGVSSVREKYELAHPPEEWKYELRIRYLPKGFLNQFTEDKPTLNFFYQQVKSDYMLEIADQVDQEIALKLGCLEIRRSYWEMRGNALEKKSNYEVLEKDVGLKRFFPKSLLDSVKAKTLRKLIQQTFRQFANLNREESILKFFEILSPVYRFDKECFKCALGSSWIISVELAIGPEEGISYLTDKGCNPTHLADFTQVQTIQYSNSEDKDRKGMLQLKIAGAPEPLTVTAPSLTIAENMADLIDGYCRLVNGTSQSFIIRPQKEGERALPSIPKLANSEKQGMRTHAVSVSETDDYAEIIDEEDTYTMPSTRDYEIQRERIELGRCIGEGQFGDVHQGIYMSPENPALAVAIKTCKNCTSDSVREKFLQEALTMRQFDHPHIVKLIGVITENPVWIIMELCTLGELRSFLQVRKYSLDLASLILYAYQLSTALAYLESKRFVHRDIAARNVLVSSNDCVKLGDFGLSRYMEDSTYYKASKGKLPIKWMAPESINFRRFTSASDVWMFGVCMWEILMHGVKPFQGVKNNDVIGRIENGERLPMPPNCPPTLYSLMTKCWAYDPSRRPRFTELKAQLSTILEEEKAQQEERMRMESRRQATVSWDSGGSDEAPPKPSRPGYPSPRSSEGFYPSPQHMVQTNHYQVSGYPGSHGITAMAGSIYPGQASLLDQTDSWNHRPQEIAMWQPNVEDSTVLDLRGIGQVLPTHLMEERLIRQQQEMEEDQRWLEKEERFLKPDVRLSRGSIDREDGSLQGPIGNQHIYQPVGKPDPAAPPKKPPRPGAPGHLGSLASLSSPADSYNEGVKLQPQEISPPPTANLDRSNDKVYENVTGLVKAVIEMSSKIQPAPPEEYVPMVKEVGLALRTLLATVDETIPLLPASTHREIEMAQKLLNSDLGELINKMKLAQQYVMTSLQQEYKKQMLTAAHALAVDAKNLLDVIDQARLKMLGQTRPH
How it was run: as §1

[15] = target: T13, RIPK2 (Homo sapiens, UniProt O43353); conditions: Lys2
T13 construct: endogenous in cells; host or cells: PANC-1 cell lysate
How it was run: as §1

[16] = system: AurA, AurB, AurC; conditions: 5 µM; ATP Loop; GKFGNVYLAR
How it was run: as §1

[17] = target: T14, TEC (Homo sapiens, UniProt P42680); conditions: ATP Loop
T14 construct: endogenous in cells; host or cells: PANC-1 cell lysate
How it was run: as §1

[18] = system: MARK2, MARK3; conditions: 5 µM; Lys2; DLKAENLLLDADMNIK
How it was run: as §1

[19] = target: T15, PAK2 (Homo sapiens, UniProt Q13177)
T15 construct: endogenous in cells; host or cells: PANC-1 cell lysate
T15 sequence (Q13177 whole entry): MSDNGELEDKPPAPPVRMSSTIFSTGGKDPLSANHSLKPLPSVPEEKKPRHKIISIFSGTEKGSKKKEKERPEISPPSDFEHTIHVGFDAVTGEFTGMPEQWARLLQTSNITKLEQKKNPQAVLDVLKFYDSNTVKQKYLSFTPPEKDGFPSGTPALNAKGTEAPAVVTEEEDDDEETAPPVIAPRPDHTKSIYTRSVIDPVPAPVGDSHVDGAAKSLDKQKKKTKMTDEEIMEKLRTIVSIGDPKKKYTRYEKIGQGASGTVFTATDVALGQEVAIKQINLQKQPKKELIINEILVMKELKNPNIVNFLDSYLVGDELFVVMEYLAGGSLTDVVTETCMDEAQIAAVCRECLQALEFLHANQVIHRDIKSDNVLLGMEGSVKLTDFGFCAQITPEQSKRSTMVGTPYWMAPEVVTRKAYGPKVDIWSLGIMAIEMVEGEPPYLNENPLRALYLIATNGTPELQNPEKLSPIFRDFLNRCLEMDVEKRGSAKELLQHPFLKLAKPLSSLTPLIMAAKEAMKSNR
How it was run: as §1

[20] = target: T16, p70S6Kb (Homo sapiens, UniProt Q9UBS0); conditions: Lys2
T16 construct: endogenous in cells; host or cells: PANC-1 cell lysate
How it was run: as §1

[21] = target: T17, GSK3B (Homo sapiens, UniProt P49841); conditions: Lys2
T17 construct: we opted to conduct a kinome screen (KiNativ) in PANC-1 cell lysates; endogenous in cells; host or cells: PANC-1 cell lysate
How it was run: as §1

[22] = system: MST3, MST4, YSK1; conditions: 5 µM; ATP Loop; LADFGVAGQLTDTQIKR
How it was run: as §1

[23] = target: T18, CCRK (Homo sapiens, UniProt Q8IZL9); conditions: Lys2
T18 construct: endogenous in cells; host or cells: PANC-1 cell lysate
How it was run: as §1

[24] = target: T19, MAST3 (Homo sapiens, UniProt O60307); conditions: Lys2
T19 construct: endogenous in cells; host or cells: PANC-1
How it was run: as §1

Cn1cc(-c2cnc3ccc(NC(=O)Nc4ccc(F)c(C(F)(F)F)c4)cc3n2)cn1 [51-106, 1-(4-Fluoro-3-(trifluoromethyl)phenyl)-3-(3-(1-methyl-1H-pyrazol-4-yl)quinoxalin-6-yl)urea]
% Inhibition [1]: NB (NB = No Binding (≤ 0))
inhibition at 5 µM [2]: 8.7%
inhibition at 5 µM ([3]; Lys1, LDGCCYAVKR): 5.3%
inhibition at 5 µM ([3]; Lys2, DLKPVNIFLDSDDHVK): ≤ 0%
% Inhibition [4]: 11.7%
% Inhibition ([5]; 5 µM, Lys2, DIKPDNILIDR): NB (NB = No Binding (≤ 0))
inhibition at 5 µM ([5]; Lys1, […]): ≤ 0%
inhibition at 5 µM ([6]; ATP Loop, LLDIDETEYHADGGKVPIK): ≤ 0%
inhibition at 5 µM ([6]; Lys1, GIWIPDGENVKIPVAIKVLR): 15.6%
inhibition at 5 µM [7]: ≤ 0%
inhibition at 5 µM [8]: ≤ 0%
inhibition at 5 µM ([9]; Lys1, DTGHVYAMKILR): 6%
inhibition at 5 µM ([9]; Lys2, DIKPDNLLLDSK): ≤ 0%
% Inhibition ([10]; 5 µM, Activation Loop, KVPFAWCAPESLK): NB (NB = No Binding (≤ 0))
inhibition at 5 µM ([10]; Lys1, […]): ≤ 0%
inhibition at 5 µM [11]: ≤ 0%
inhibition at 5 µM [12]: ≤ 0%
inhibition at 5 µM ([13]; Lys1, CFEISDADTKEVFAGKIVPK): ≤ 0%
inhibition at 5 µM ([13]; Lys2, DLKLGNLFLNEDLEVK): 10.9%
inhibition at 5 µM ([14]; ATP Loop, YMEDSTYYKASK): 22.5%
inhibition at 5 µM ([14]; Lys1, CIGEGQFGDVHQGIYMSPENPALAVAIKTCK): 2.8%
inhibition at 5 µM [15]: ≤ 0%
% Inhibition [16]: NB (NB = No Binding (≤ 0))
inhibition at 5 µM [17]: 20.1%
% Inhibition [18]: 11.3%
inhibition at 5 µM ([19]; Lys1, IGQGASGTVFTATDVALGQEVAIKQINLQK): 6.9%
inhibition at 5 µM ([19]; Other, KNPQAVLDVLKFYDSNTVK): 0.8%
inhibition at 5 µM [20]: 22.5%
inhibition at 5 µM [21]: ≤ 0%
% Inhibition [22]: NB (NB = No Binding (≤ 0))
inhibition at 5 µM [23]: 4.5%
inhibition at 5 µM [24]: ≤ 0%
